# Experimental data from the NIST ThermoML archive (doi:10.1016/j.jct.2011.01.006).
# Values joined by “and” are separate entries in the source; they are usually repeats but may differ in a detail not shown here. Identical values can stand only once. Numbers after ± are expanded uncertainties.
# Experiments:
# [1] = Crystal, Calculated from knudsen effusion weight loss
# [2] = molar enthalpy of vaporization or sublimation; conditions: 298.15 K; Crystal; Ebulliometric method (Recirculating still)
structure (smiles),measurement,setting,value
CC(=O)c1cccc([N+](=O)[O-])c1 [1-(3-nitrophenyl)ethanone],vapor or sublimation pressure,[1]; 300.2 K,7e-05 ± 4e-06 kPa and 6.8e-05 ± 3e-06 kPa and 6.6e-05 ± 3e-06 kPa
same,vapor or sublimation pressure,[1]; 302.18 K,8.8e-05 ± 4e-06 kPa and 8.9e-05 ± 4e-06 kPa
same,vapor or sublimation pressure,[1]; 304.08 K,0.000113 ± 6e-06 kPa and 0.000115 ± 6e-06 kPa
same,vapor or sublimation pressure,[1]; 306.2 K,0.000149 ± 7e-06 kPa and 0.000148 ± 7e-06 kPa and 0.000152 ± 8e-06 kPa
same,vapor or sublimation pressure,[1]; 308.16 K,0.000192 ± 1e-05 kPa and 0.000191 ± 1e-05 kPa and 0.000189 ± 9e-06 kPa
same,vapor or sublimation pressure,[1]; 310.08 K,0.000238 ± 1.2e-05 kPa and 0.000241 ± 1.2e-05 kPa and 0.000249 ± 1.2e-05 kPa
same,vapor or sublimation pressure,[1]; 312.19 K,0.000321 ± 1.6e-05 kPa and 0.000305 ± 1.5e-05 kPa and 0.000302 ± 1.5e-05 kPa
same,vapor or sublimation pressure,[1]; 314.15 K,0.000404 ± 2e-05 kPa and 0.000392 ± 2e-05 kPa and 0.000387 ± 1.9e-05 kPa
same,vapor or sublimation pressure,[1]; 316.08 K,0.000499 ± 2.5e-05 kPa and 0.000491 ± 2.5e-05 kPa and 0.00049 ± 2.5e-05 kPa
same,vapor or sublimation pressure,[1]; 318.18 K,0.000669 ± 3.4e-05 kPa and 0.000628 ± 3.1e-05 kPa and 0.000621 ± 3.1e-05 kPa
same,vapor or sublimation pressure,[1]; 320.15 K,0.000817 ± 4.1e-05 kPa and 0.000801 ± 4e-05 kPa and 0.00079 ± 4e-05 kPa
same,vapor or sublimation pressure,[1]; 322.08 K,0.001007 ± 0.0001 kPa and 0.001 ± 5e-05 kPa and 0.000997 ± 5e-05 kPa
same,molar enthalpy,[2],23.69 ± 0.215 kcal/mol
CC(=O)c1ccc([N+](=O)[O-])cc1 [1-(4-nitrophenyl)ethanone],vapor or sublimation pressure,[1]; 302.19 K,9.1e-05 ± 5e-06 kPa and 9e-05 ± 5e-06 kPa
same,vapor or sublimation pressure,[1]; 304.15 K,0.000121 ± 6e-06 kPa and 0.000119 ± 6e-06 kPa and 0.000118 ± 6e-06 kPa
same,vapor or sublimation pressure,[1]; 306.07 K,0.000149 ± 7e-06 kPa and 0.000156 ± 8e-06 kPa and 0.000151 ± 8e-06 kPa
same,vapor or sublimation pressure,[1]; 306.19 K,0.000148 ± 7e-06 kPa and 0.000151 ± 8e-06 kPa and 0.000147 ± 7e-06 kPa
same,vapor or sublimation pressure,[1]; 308.16 K,0.000192 ± 1e-05 kPa and 0.000193 ± 1e-05 kPa and 0.00019 ± 1e-05 kPa
same,vapor or sublimation pressure,[1]; 310.07 K,0.000239 ± 1.2e-05 kPa and 0.000235 ± 1.2e-05 kPa and 0.000243 ± 1.2e-05 kPa
same,vapor or sublimation pressure,[1]; 312.19 K,0.000329 ± 1.6e-05 kPa and 0.000306 ± 1.5e-05 kPa and 0.000304 ± 1.5e-05 kPa
same,vapor or sublimation pressure,[1]; 314.16 K,0.000402 ± 2e-05 kPa and 0.000397 ± 2e-05 kPa and 0.000392 ± 2e-05 kPa
same,vapor or sublimation pressure,[1]; 316.07 K,0.000494 ± 2.5e-05 kPa and 0.000502 ± 2.5e-05 kPa and 0.000503 ± 2.5e-05 kPa
same,vapor or sublimation pressure,[1]; 318.18 K,0.000657 ± 3.3e-05 kPa and 0.000619 ± 3.1e-05 kPa and 0.000617 ± 3.1e-05 kPa
same,vapor or sublimation pressure,[1]; 320.13 K,0.000795 ± 4e-05 kPa and 0.000792 ± 4e-05 kPa and 0.00078 ± 3.9e-05 kPa
same,vapor or sublimation pressure,[1]; 322.06 K,0.00096 ± 4.8e-05 kPa and 0.000984 ± 4.9e-05 kPa and 0.000991 ± 5e-05 kPa
same,molar enthalpy,[2],23.2 ± 0.263 kcal/mol
